Results published in US10010534B2, “Intravenous formulation and LC/MS/MS analysis method for GMC1” (THE BOARD OF REGENTS OF THE UNIVERSITY OF TEXAS SYSTEM, priority 2016, dated 2018).
Values after ≈ are worked out from the molar mass of the structure shown. Read-outs that look alike come from different tables or passages of the source.

Tests used:
androgen receptor (AR) = settings: variety of cell lines; cited from earlier work
[1] = Pharmacokinetic study of the GMC1 co-solvent formulation, IV bolus; format: in vivo, male Sprague Dawley rats; settings: rat, single 2 mg/kg IV bolus, three compartment model; for half-life / Vd: iv, 2 mg/kg
Experimental: Pharmacokinetic Studies of the GMC1 Co-Solvent Formulation. Pharmacokinetic study, which elucidates the fate of GMC1 in living systems, was performed. The pharmacokinetic study also verifies the applicability of the LC/MS/MS assay method and the formulation. A rat model was employed and male Sprague Dawley rats were selected as an animal model based on the similarity to humans in metabolism. Four male Sprague Dawley rats (body weight: 300-350 g) were cannulated through the jugular vein under anesthesia (using a cocktail of ketamine:acepromazine:xylazine at a ratio of 50:3.3:3.3 mg/kg). On the following day, the optimal co-solvent formulation of GMC1 (consisting of Labrasol® 50:50 PEG 300, and GMC1 10 mg/mL) was diluted ten times in normal saline to 1 mg/mL. Each rat was administered a 2 mg/kg IV bolus dose of GMC1. Heparinized blood samples were withdrawn from each rat at 5, 10, 15, 30, 60, 120, 240, 480, 720, 1440, 2880, 3240 min after injection. The blood samples were centrifuged at 14,000 rpm for 6 min and the supernatant plasma obtained and stored at −80° C. until analysis. Urine samples were also collected at 0, 60, 240, 480, 720, and 1440 min. The plasma and urine samples were analyzed (within 7 days) using the LC/MS/MS method described herein to obtain the concentration of GMC1.
The pharmacokinetic parameters for each rat were determined with Phoenix WinNonlin 6.3 software (Pharsight Corporation, Mountain View, Calif., USA) using a three compartment, which best described the fit for the IV bolus administration of GMC1, based on the observed and predicted fits of the plasma concentration versus time plot, the reduction in the sums of squares, and the Akaike's information criterion (AIC) for comparing compartmental models (Yamaoka et al., Journal of Pharmacokinetics and Biopharmaceutics 1978, 6(2):165-75). The three-compartment model is described by the equation: Ct=A·e^−αt+B·e^−βt+C·e^−γt where A, B and C are the coefficients, α, β, and γ are alpha, beta and gamma phase rate constants respectively, and Ct is the plasma concentration of GMC1 at time, t.
The weighting scheme of concentration^−2 (Y^−2) was used to determine the model that best fits the individual profiles.

[2] = Processed sample (on-instrument or auto-sampler) stability; format: physicochemical; settings: rat
Experimental: The stability of processed samples (on-instrument or auto-sampler stability) was also evaluated by comparing freshly prepared plasma and urine QC samples to samples placed on the auto-sampler for 2, 4, and 6 h respectively. One set of the plasma and urine QC samples was extracted with methanol containing IS, and another set with pure methanol without IS.

[3] = Water-octanol partition co-efficient (log P), shaker method; format: physicochemical
Experimental: The water-octanol partition co-efficient (log P) of GMC1, a measure of how hydrophilic (“water-loving”) or hydrophobic (“water-fearing”) GMC1 is, was also evaluated using the shaker method.

[4] = Freeze-thaw cycle stability of GMC1 plasma and urine samples; format: physicochemical, rat; settings: read-out: Mean Recovery ± SD, freeze-thaw cycle stability
Experimental: The freeze-thaw cycle stability of GMC1 plasma and urine samples was evaluated by comparing QC plasma and urine samples exposed to three cycles of freeze (at −80° C.) and thaw (room temperature) to freshly prepared QC samples at the same concentration. Average recoveries from freeze-thawed plasma samples were 106±5.9%, 98.5±3.7% and 94.1±2.9% for GMC1 concentrations of 10, 200 and 400 ng/mL respectively. Average recovery from urine samples were 113±8.9%, 101±3.9%, and 86.6±7.5% for 10, 200 and 400 ng/mL GMC1 concentrations respectively.

[5] = Solubility of GMC1 in selected solvents by the shaker method; format: physicochemical; settings: thermodynamic from solid, read-out: Mean Solubility ± SD
Experimental: Solubility information in various solvents is important in developing a suitable intravenous formulation of GMC1 for preclinical and clinical studies. The solubility of GMC1 in water, ethanol, polyethylene glycol 300 and 400, propylene glycol monocapryrate type I (Capyrol 90®), dimethyl sulfoxide (DMSO), dimethyl acetamide (DMA), Tween 80®, Labrasol®, Labrafac®, soybean oil, and oleic acid were determined by the shaker method. Briefly, excess amount of GMC1 was added to each of the selected solvents in a scintillation vial and shook using a reciprocating shaker at room temperature for 72 h. The samples were centrifuged at 14,000 rpm for 10 min and subsequently filtered through a 0.22 μm filtration unit, the resulting filtrate analyzed by LC/MS/MS to determine the GMC1 dissolved in the solvents. The study was conducted in triplicate.

[6] = Short-term (bench-top) stability of GMC1 plasma and urine samples; format: physicochemical, rat; settings: read-out: Mean Recovery ± SD, short-term stability; for recovery at 2 h: bench-top 2 h; for recovery at 4 h: bench-top 4 h; for recovery at 6 h: bench-top 6 h
Experimental: The short-term (bench-top) stability of GMC1 plasma and urine samples was evaluated by analyzing three sets each of GMC1 plasma and urine samples freshly prepared and placed on the bench-top for 2, 4, and 6 h, respectively. All the samples were compared with freshly prepared samples of the same concentration.

[7] = test system: glucocorticoid receptor (GR); settings: variety of cell lines; cited from earlier work
[8] = test system: 22Rv1 prostate cancer cell; assay: 22Rv1 prostate cancer cell proliferation; format: cell-based
[9] = processed plasma sample (methanol extract), plasma extracted with methanol containing IS, read-out: Mean Recovery ± SD, auto-sampler stability, With IS
[10] = processed plasma sample (methanol extract), plasma extracted with pure methanol, read-out: Mean Recovery ± SD, auto-sampler stability, No IS
[11] = processed urine sample (methanol extract), urine extracted with methanol containing IS, read-out: Mean Recovery ± SD, auto-sampler stability, With IS
[12] = processed urine sample (methanol extract), urine extracted with pure methanol, read-out: Mean Recovery ± SD, auto-sampler stability, No IS

COc1ccc(/C=N/NC(=O)CSc2nc3ccccc3[nH]2)cc1 [GMC1]
concentration range inhibiting receptor activity (androgen receptor (AR)): low to mid micro-molar
AUC(0-inf) ([1]; male, Sprague Dawley, plasma): 3900 ng·h/mL
Cmax ([1]; male, Sprague Dawley, plasma): 7640 ± 1980 ng/mL
clearance ([1]; male, Sprague Dawley, plasma, read-out: Cl (total body clearance)): 8.9 ± 1.66 mL/min/kg
half-life ([1]; male, Sprague Dawley, plasma, read-out: T1/2α (distribution half-life of α-phase)): 0.11 ± 0.036 h
half-life ([1]; male, Sprague Dawley, plasma, read-out: T1/2β (elimination half-life of β-phase)): 1.23 ± 0.42 h
half-life ([1]; male, Sprague Dawley, plasma, read-out: T1/2γ (elimination half-life of γ-phase)): 19.7 ± 5.09 h
Vd ([1]; male, Sprague Dawley, plasma, read-out: V1 (volume of distribution of central compartment)): 0.278 ± 0.0642 L/kg
Vd ([1]; male, Sprague Dawley, plasma, read-out: Vss (volume of distribution at steady state)): 7.73 ± 1.22 L/kg
A (coefficient of α-phase) [1]: 6528.9 ± 1996.01 ng/mL
B (coefficient of β-phase) [1]: 1038.5 ± 546.09 ng/mL
C (coefficient of γ-phase) [1]: 75.1 ± 20.24 ng/mL
V2 (volume of distribution of first peripheral compartment) [1]: 0.5595 ± 0.20603 L/kg
V3 (volume of distribution of second peripheral compartment) [1]: 6.8665 ± 1.11754 L/kg
recovery at 2 h [2, 9]: 89.9 ± 4.7%
recovery at 4 h [2, 9]: 97.5 ± 1.5%
recovery at 6 h [2, 9]: 96.2 ± 5.6%
recovery at 2 h [2, 10]: 94.7 ± 7.9%
recovery at 4 h [2, 10]: 99.7 ± 4.5%
recovery at 6 h [2, 10]: 98.4 ± 6.2%
recovery at 2 h [2, 11]: 96.4 ± 2.8%
recovery at 4 h [2, 11]: 98.5 ± 1.1%
recovery at 6 h [2, 11]: 97.1 ± 4.8%
recovery at 2 h [2, 12]: 96.1 ± 2.4%
recovery at 4 h [2, 12]: 89.7 ± 8.8%
recovery at 6 h [2, 12]: 95.2 ± 2.2%
logP [3]: 3.48 ± 0.03
recovery at 10 ng/mL ([4]; rat plasma, three cycles −80° C./room temperature): 106 ± 5.9%
recovery at 200 ng/mL ([4]; rat plasma, three cycles): 98.5 ± 3.7%
recovery at 400 ng/mL ([4]; rat plasma, three cycles): 94.1 ± 2.9%
recovery at 10 ng/mL ([4]; rat urine, three cycles): 113 ± 8.9%
recovery at 200 ng/mL ([4]; rat urine, three cycles): 101 ± 3.9%
recovery at 400 ng/mL ([4]; rat urine, three cycles): 86.6 ± 7.5%
solubility at 72 h ([5]; DMSO, organic solvent or mixture, DMSO, room temperature): ≥ 100 mg/mL
solubility at 72 h ([5]; Labrafac, oil or lipid, Labrafac, room temperature): 1.2 ± 0.01 mg/mL (≈ 3.53 mM)
solubility at 72 h ([5]; Labrasol, aqueous with cosolvent or surfactant or cyclodextrin, Labrasol, room temperature): 36.4 ± 2.9 mg/mL (≈ 107 mM)
solubility at 72 h ([5]; PEG 300, organic solvent or mixture, PEG 300, room temperature): 36.6 ± 1.12 mg/mL (≈ 108 mM)
solubility at 72 h ([5]; PEG 400, organic solvent or mixture, PEG 400, room temperature): 35.7 ± 1.41 mg/mL (≈ 105 mM)
solubility at 72 h ([5]; Tween 80, aqueous with cosolvent or surfactant or cyclodextrin, Tween 80, room temperature): 20.3 ± 5.39 mg/mL (≈ 59.6 mM)
solubility at 72 h ([5]; dimethyl acetamide, organic solvent or mixture, Dimethyl acetamide, room temperature): ≥ 100 mg/mL
solubility at 72 h ([5]; ethanol, organic solvent or mixture, Ethanol, room temperature): 6.3 ± 0.29 mg/mL (≈ 18.5 mM)
solubility at 72 h ([5]; oleic acid, oil or lipid, Oleic Acid, room temperature): 2.2 ± 0.02 mg/mL (≈ 6.46 mM)
solubility at 72 h ([5]; soybean oil, oil or lipid, Soy bean oil, room temperature): 1.1 ± 0.02 mg/mL (≈ 3.23 mM)
recovery at 2 h ([6]; rat plasma): 97.4 ± 8.89%
recovery at 4 h ([6]; rat plasma): 88.9 ± 2.63%
recovery at 6 h ([6]; rat plasma): 80.1 ± 5.71%
recovery at 2 h ([6]; rat urine): 94.2 ± 4.66%
recovery at 4 h ([6]; rat urine): 93.9 ± 0.76%
recovery at 6 h ([6]; rat urine): 93.7 ± 1.23%
concentration range inhibiting receptor activity [7]: low to mid micro-molar
concentration range inhibiting cell proliferation [8]: low micromolar
